For assay [1], the system named is PLA2G6^D331Y/D331Y knockin mice. Briefly: Locomotor activity in open field boxes after L-DOPA in homozygous (D331Y) PLA2G6 knockin mice. The format is in vivo. As to conditions: about 1.5 mg/kg; homozygous PLA2G6^D331Y/D331Y knockin mouse at about 9 months old. The method, then: Behavioral Assessments The locomotor activity of WT or (D331Y) PLA2G6 KI mice were evaluated in open field boxes for 60 minutes. Movements of animal were recorded and assessed with the TopScan video tracking system (Clever Sys., Inc.). The locomotor activity of mouse was examined by measuring the velocity and distance. To evaluate the therapeutic benefit of L-DOPA in PLA2G6^D331Y/D331Y mice, benserazide (0.5 mg/kg) and L-DOPA (1.5 mg/kg) were intraperitoneally administered into animal. The locomotor activity was recorded 40 min after the injection.

Assay [2] has as its system PD patients carrying PLA2G6 mutations. The note with it: cited from earlier work.
Assay [3] concerns MPTP-induced mice model of PD. As to conditions: 25 mg/kg for 21 days; MPTP-induced mice model of PD (Zhao T. T. et al.); cited from earlier work.

This is an account of results in patent US20200215204A1, “EARLY-ONSET PARKINSON'S DISEASE MODEL: (D331Y) PLA2G6 KNOCKIN MODEL, PLATFORM AND METHOD FOR DRUG SCREENING, AND KIT OF DETECTION” (Chang Gung Memorial Hospital, Linkou, priority 2019, published 2020).

As to `N[C@@H](Cc1ccc(O)c(O)c1)C(=O)O` [L-DOPA], the “symptoms of motor deficit” value in assay [1] was “significantly improve symptoms of said motor deficit”. In addition, the “effectiveness in treating patients” value in assay [2] is “effective”. The therapeutic effect result in assay [3] is on record as “significant therapeutic effect”.
